The record followed here is ChEMBL document CHEMBL1158775, “Quinones from Chirita eburnea” (J Nat Prod, 2005).

The IC50 is the concentration that gives 50% inhibition.

Molecules are shown by their SMILES.

In the experiment the test system is Radical scavenging activity. In words: Antioxidant activity assessed as DPPH radical scavenging activity. The format is functional. Background: DPPH is a stable violet radical that fades when it is reduced.
As to `COc1c(O)cc2c(c1O)C(=O)C1=C(C2=O)C(C)(C)[C@H](C)O1`, the IC50 was determined as 45.7 µM. As for `C[C@@H]1OC2=C(C(=O)c3ccc(O)c(O)c3C2=O)C1(C)C`, the figure is 125 µM; as for `O=C1O[C@H]([C@@H](O)CO)C(O)=C1O` [ASCORBIC ACID], 86.9 µM.
